Measurements: patent publication US4837215A, “Penem derivatives” (Farmitalia Carlo Erba, priority 1985, dated 1989)
Converted amounts (≈) assume the structure as drawn. Read-outs that look alike come from different tables or passages of the source.

Assays:
Format in all cases: cell-based
[1] = test system: Escherichia coli B Cef. R (β-lact.+); assay: Antibacterial in vitro activity (MIC), Escherichia coli B Cef. R (β-lact.+)
Source text: (§1) Comparison between the antibacterial in vitro
(§2) activity (MIC, μg/ml) of compounds (1)
(§3) and (31) and a reference drug: Moxalactam

[2] = test system: Klebsiella aerogenes 1082E (β-lact.+); assay: Antibacterial in vitro activity (MIC), Klebsiella aerogenes 1082E (β-lact.+)
Source text: as §1, §2, §3

[3] = test system: Shigella flexneri ATCC 11836; assay: Antibacterial in vitro activity (MIC), Shigella flexneri ATCC 11836; details: ATCC11836
Source text: as §1, §2, §3

[4] = test system: Citrobacter freundii ATCC 8090; assay: Antibacterial in vitro activity (MIC), Citrobacter freundii ATCC 8090; details: ATCC8090
Source text: as §1, §2, §3

[5] = test system: Staphylococcus aureus Smith ATCC 13709; assay: Antibacterial in vitro activity (MIC), Staphylococcus aureus Smith ATCC 13709; details: ATCC13709
Source text: as §1, §2, §3

[6] = test system: Enterobacter cloacae P 99 (β-lact.+); assay: Antibacterial in vitro activity (MIC), Enterobacter cloacae P 99 (β-lact.+)
Source text: as §1, §2, §3

[7] = test system: Staphylococcus aureus 209 P; assay: Antibacterial in vitro activity (MIC), Staphylococcus aureus 209 P
Source text: as §1, §2, §3

[8] = test system: Streptococcus pyrogenes ATCC 12384; assay: Antibacterial in vitro activity (MIC), Streptococcus pyrogenes ATCC 12384; details: ATCC12384
Source text: as §1, §2, §3

[9] = test system: Escherichia coli 026/B6 Cef R; assay: Antibacterial in vitro activity (MIC), Escherichia coli 026/B6 Cef R; details: 026/B6CEFR
Source text: as §1, §2, §3

[10] = test system: Acinobacter; assay: Antibacterial in vitro activity (MIC), Acinobacter
Source text: as §1, §2, §3

[11] = test system: Pseudomonas aeruginosa (6 strains); assay: Antibacterial in vitro activity (MIC), Pseudomonas aeruginosa (6 strains)
Source text: as §1, §2, §3

[12] = Escherichia coli B Cef. R (β-lact.+), read-out: MIC
[13] = Klebsiella aerogenes 1082E (β-lact.+), read-out: MIC
[14] = Enterobacter cloacae P 99 (β-lact.+), read-out: MIC

SMILES | MIC ([1]; Escherichia coli) [µg/mL] | MIC ([2]; Klebsiella aerogenes) [µg/mL] | MIC [3] [µg/mL] | MIC ([4]; Citrobacter freundii) [µg/mL] | MIC [5] [µg/mL] | MIC ([6]; Enterobacter cloacae) [µg/mL] | MIC [7] [µg/mL] | MIC [8] [µg/mL] | MIC [9] [µg/mL] | MIC [1, 12] [µg/mL] | MIC [2, 13] [µg/mL] | MIC [6, 14] [µg/mL] | MIC [10] [µg/mL] | MIC [11] [µg/mL] | MIC ([4]; Citrobacter freundii ATCC 8090, read-out: MIC) [µg/mL]
C[C@@H](O)[C@H]1C(=O)N2C(C(=O)[O-])=C(Oc3ccc(C[n+]4ccccc4)cc3)S[C@H]12 [Compound 31] | 1.56 (≈ 3.92 µM) | 1.56 (≈ 3.92 µM) | 1.56 (≈ 3.92 µM) | 1.56 (≈ 3.92 µM) | 0.045 (≈ 0.113 µM) | 1.56 (≈ 3.92 µM) | 0.022 (≈ 0.0552 µM) | 0.011 (≈ 0.0276 µM) | 0.78 (≈ 1.96 µM) |  |  |  |  |  | 
CO[C@@]1(NC(=O)C(C(=O)O)c2ccc(O)cc2)C(=O)N2C(C(=O)O)=C(CSc3nnnn3C)CO[C@@H]21 (stereo partly shown) [Moxalactam, reference compound] |  |  | 0.15 (≈ 0.288 µM) |  | 0.31 (≈ 0.596 µM) |  | 0.31 (≈ 0.596 µM) | 2.5 (≈ 4.8 µM) | 2.5 (≈ 4.8 µM) | 2.5 (≈ 4.8 µM) | 0.78 (≈ 1.5 µM) | 3.12 (≈ 5.99 µM) |  |  | 
C[C@@H](O)[C@H]1C(=O)N2C(C(=O)[O-])=C(SCC[n+]3ccccc3)S[C@H]12 [Compound 1, (5R,6S)-6-[(1R)-hydroxyethyl]-2-(2-pyridinioethylthio) penem-3-carboxylate] |  |  | 0.39 (≈ 1.11 µM) |  | 0.222 (≈ 0.63 µM) |  | 0.011 (≈ 0.0312 µM) | ≤ 0.005 | 0.39 (≈ 1.11 µM) | 0.78 (≈ 2.21 µM) | 0.78 (≈ 2.21 µM) | 0.78 (≈ 2.21 µM) | 0.78 (≈ 2.21 µM) | 9.92 (≈ 28.1 µM) | 0.78 (≈ 2.21 µM)
